# Article PMC3441526, “KCN1, a Novel Synthetic Sulfonamide Anticancer Agent: In Vitro and In Vivo Anti-Pancreatic Cancer Activities and Preclinical Pharmacology” (PLoS ONE, 2012)
# Tests used:
# [1] = Pharmacokinetic study, faecal recovery and late detection (strain not stated); format: in vivo, mice; conditions: for initial dose of parental compound recovered in feces: mice
# Description: Female CD-1 and nude mice were administered 35 mg/kg body weight of KCN1 as either a single intravenous injection via a tail vein or via an intraperitoneal injection. At selected time points after dosing, groups of three mice/time point were subjected to a retro-orbital bleed. The blood was collected into heparinized tubes, and plasma was separated by centrifugation. Tissues (brain, skeletal muscle, kidneys, liver, spleen, and heart) were collected by necropsy. Urine and feces were collected on ice for 24 h from mice housed in metabolic cages (n = 3/study). The collection containers and cages were washed twice with 0.9% saline solution, and each urine collection and each wash was analyzed separately, then values were added together for each mouse to determine the total KCN1 present in urine during the collection period. Pharmacokinetic values were derived using Phoenix WinNonlin Version 6.0 (Mountain View, CA).
# [2] = tested on: HPAC, Panc-1, Mia Paca-2 and BxPC3 pancreatic cancer cells; experiment: Western blot of cell cycle-related proteins; format: cell-based, human; conditions: all four cell lines, 12 h and 24 h
# Description: In the in vitro studies, cells were exposed to various concentrations of KCN1 for 12 or 24 h. For immunoblotting, cell lysates were fractionated with identical amounts of protein by SDS-PAGE and transferred to Bio-Rad trans-Blot nitrocellulose membranes (Bio-Rad Laboratories, Hercules, CA). The nitrocellulose membrane was then incubated in blocking buffer (Tris-buffered saline containing 0.1% Tween 20 and 5% non-fat milk) for 1 hr at room temperature. Then the membrane was incubated with the appropriate primary antibody overnight at 4°C or 2 h at room temperature with gentle shaking. The membrane was washed three times with rinsing buffer (Tris-buffered saline containing 0.1% Tween 20) for 15 min and then incubated with goat anti-mouse/rabbit IgG-horseradish peroxidase-conjugated antibody (Bio-Rad) for 1 h at room temperature. After repeating the washes in triplicate, the protein of interest was detected by enhanced chemilluminescence reagents from PerkinElmer LAS, Inc (Boston, MA).
# [3] = Tolerability on repeated intraperitoneal dosing; format: in vivo, mice
# HPAC cells = experiment: Cell cycle measurement by flow cytometry; format: cell-based, human; conditions: 24 h
# Description: (§1) To determine the effect of KCN1 on the cell cycle, cells (2–3×10^5) were exposed to the test compounds (0, 5, 12.5 or 50 µM) and incubated for 24 h prior to analysis. Cells were trypsinized, washed with PBS, and fixed in 1.5 mL of 95% ethanol at 4°C overnight, followed by incubation with RNAse and staining with propidium iodide (Sigma). The DNA content was determined by flow cytometry, [47].
# Mia Paca-2 cells = experiment: Cell cycle measurement by flow cytometry; format: cell-based, human; conditions: for cell cycle distribution, G1 / cell cycle distribution, G2/M / cell cycle distribution, S: 24 h
# Description: as §1
# BxPC3 cells = experiment: Cell cycle measurement by flow cytometry; format: cell-based, human; conditions: for cell cycle distribution, G1 / cell cycle distribution, G2/M / cell cycle distribution, S: 24 h
# Description: as §1
# Panc-1 cells = experiment: Cell cycle measurement by flow cytometry; format: cell-based, human; conditions: for cell cycle distribution, G1 / cell cycle distribution, G2/M / cell cycle distribution, S: 24 h
# Description: as §1
# [4] = Plasma protein binding assay (ultrafiltration); format: in vitro ADME; conditions: mouse plasma
# Description: The extent to which KCN1 was bound by mouse plasma proteins was assessed by a previously described method involving the use of a micro-ultrafiltration system. Samples of mouse plasma containing KCN1 at concentrations of 1.0 and 10 µM were maintained at 37°C for 1 h. Controls were prepared using methanol in place of plasma. From each of these preparations, a portion was taken and placed in a sample reservoir of an Amicon Centrifree® ultrafiltration system (Millipore Co., Bedford, MA). The filter systems were centrifuged at 2,000 × g until the reservoirs were dry. From each sample, triplicate portions were taken for analysis by HPLC. The amounts present in the filtrate were designated as “free drug” (F). The concentrations of the unfiltered solutions were also determined by triplicate analyses. This amount represented the “total drug” concentration (T). The amount bound to the filter (X) was also considered. The percentage of KCN1 bound to plasma proteins was calculated by the following formula: % bound = [(T-F-X)/T]×100.
smiles,measurement,setting,value
"COc1ccc(S(=O)(=O)N(Cc2ccc3c(c2)C=CC(C)(C)O3)c2ccccc2)cc1OC [KCN1, 3,4-dimethoxy-N-[(2,2-dimethyl-2H-chromen-6-yl)methyl]-N-phenylbenzenesulfonamide]",time still detectable at a low level,[1]; after intraperitoneal dosing (data not shown),at least five days
same,initial dose of parental compound recovered in feces,[1]; I.P. injection (data not shown),Approximately 1%
same,initial dose of parental compound recovered in feces,[1]; I.V. injection (data not shown),less than 1%
same,"expression of E2F1, Cdk2, Cdk4, Cdk6, Cdc25c, Cyclin D1 and Cyclin E",[2],decreased expression
same,expression of p21 and p27,[2],increased the expression
same,"pathological examination of brain, kidneys, GI tract or lungs at necropsy",[3]; data not shown,no ultra-structural changes
same,"signs of toxicity, behavior and appearance",[3]; i.p. up to 60 mg/kg daily for up to 12 weeks,no apparent signs of toxicity
same,tolerability of regimen,[3]; i.p. up to 60 mg/kg daily in cremophor:ethanol for up to 12 weeks,well tolerated
same,time to reversal of liver swelling after discontinuation of treatment,"[3]; mouse, in vivo",2–3 weeks
same,blood cell populations and blood chemistry,"[3]; preliminary analyses, data not shown",within normal limits
same,liver finding at autopsy,"[3]; tissue edema with bile duct stasis, no hepatocyte death, may be caused by cremophor:ethanol formulation",Swelling was observed in the livers
same,"cell cycle distribution, G1",HPAC cells; 5 µM,62.1±4.9
same,"cell cycle distribution, G2/M",HPAC cells; 5 µM,11.8±1.2
same,"cell cycle distribution, S",HPAC cells; 5 µM,26.1±3.8
same,"cell cycle distribution, G1",HPAC cells; 12.5 µM,66.8±1.6
same,"cell cycle distribution, G2/M",HPAC cells; 12.5 µM,10.9±1.3
same,"cell cycle distribution, S",HPAC cells; 12.5 µM,22.4±1.6
same,"cell cycle distribution, G1",HPAC cells; 50 µM,68.8±2.7
same,"cell cycle distribution, G2/M",HPAC cells; 50 µM,11.5±1.4
same,"cell cycle distribution, S",HPAC cells; 50 µM,19.7±1.4
same,concentration at which G1 arrest begins,HPAC cells,5 µM
same,"cell cycle distribution, G1","Mia Paca-2 cells; Mia Paca-2, 5 µM",50.4±3.6
same,"cell cycle distribution, G2/M","Mia Paca-2 cells; Mia Paca-2, 5 µM",31.6±1.9
same,"cell cycle distribution, S","Mia Paca-2 cells; Mia Paca-2, 5 µM",18.0±0.9
same,"cell cycle distribution, G1","Mia Paca-2 cells; Mia Paca-2, 12.5 µM",55.2±1.2
same,"cell cycle distribution, G2/M","Mia Paca-2 cells; Mia Paca-2, 12.5 µM",24.6±0.9
same,"cell cycle distribution, S","Mia Paca-2 cells; Mia Paca-2, 12.5 µM",20.2±1.7
same,"cell cycle distribution, G1","Mia Paca-2 cells; Mia Paca-2, 50 µM",58.9±3.9
same,"cell cycle distribution, G2/M","Mia Paca-2 cells; Mia Paca-2, 50 µM",20.3±1.1
same,"cell cycle distribution, S","Mia Paca-2 cells; Mia Paca-2, 50 µM",20.8±1.5
same,concentration at which G1 arrest begins,"Mia Paca-2 cells; Mia Paca-2, 24 h",5 µM
same,"cell cycle distribution, G1","BxPC3 cells; BXPC3, 5 µM",52.9±4.1
same,"cell cycle distribution, G2/M","BxPC3 cells; BXPC3, 5 µM",26.4±1.3
same,"cell cycle distribution, S","BxPC3 cells; BXPC3, 5 µM",20.8±3.8
same,"cell cycle distribution, G1","BxPC3 cells; BXPC3, 12.5 µM",65.1±3.5
same,"cell cycle distribution, G2/M","BxPC3 cells; BXPC3, 12.5 µM",17.4±1.9
same,"cell cycle distribution, S","BxPC3 cells; BXPC3, 12.5 µM",17.5±2.1
same,"cell cycle distribution, G1","BxPC3 cells; BXPC3, 50 µM",70.8±2.0
same,"cell cycle distribution, G2/M","BxPC3 cells; BXPC3, 50 µM",15.5±1.7
same,"cell cycle distribution, S","BxPC3 cells; BXPC3, 50 µM",13.7±0.9
same,concentration at which G1 arrest begins,"BxPC3 cells; BxPC3, 24 h",5 µM
same,"cell cycle distribution, G1","Panc-1 cells; Panc-1, 5 µM",40.3±2.2
same,"cell cycle distribution, G2/M","Panc-1 cells; Panc-1, 5 µM",30.9±0.8
same,"cell cycle distribution, S","Panc-1 cells; Panc-1, 5 µM",28.8±3.2
same,"cell cycle distribution, G1","Panc-1 cells; Panc-1, 12.5 µM",49.8±0.8
same,"cell cycle distribution, G2/M","Panc-1 cells; Panc-1, 12.5 µM",28.8±1.6
same,"cell cycle distribution, S","Panc-1 cells; Panc-1, 12.5 µM",21.4±0.9
same,"cell cycle distribution, G1","Panc-1 cells; Panc-1, 50 µM",53.3±2.3
same,"cell cycle distribution, G2/M","Panc-1 cells; Panc-1, 50 µM",29.1±1.4
same,"cell cycle distribution, S","Panc-1 cells; Panc-1, 50 µM",17.6±0.9
same,concentration at which G1 arrest begins,"Panc-1 cells; Panc-1, 24 h",12.5 µM
same,binding to plasma proteins,[4]; 1.0 µM,90.96%
same,binding to plasma proteins,[4]; 10.0 µM,99.32%
